The target in the assay is T1, Full length wild-type cereblon CRBN (Homo sapiens, UniProt Q96SW2).
T1 construct: Full length wild-type cereblon CRBN (80.0 nM, 10 μL) was incubated in assay buffer
In words: Fluorescence polarization (FP) assay, cereblon binding. An excerpt:
Compound activity was monitored in a fluorescence polarization (FP) homogeneous assay using 1-[5-({2-[2-(2-{[2-(2,6-dioxopiperidin-3-yl)-1,3-dioxo-2,3-dihydro-1H-isoindol-4-yl]oxy}acetamido)ethoxy]ethyl}carbamoyl)pentyl]-3,3-dimethyl-2-[(1E,3E)-5-[(2E)-1,3,3-trimethyl-5-sulfo-2,3-dihydro-1H-indol-2-ylidene]penta-1,3-dien-1-yl]-3H-indol-1-ium-5-sulfonate as a fluorescent probe. Unless otherwise stated, all reagents were purchased from Sigma Aldrich. […] Full length wild-type cereblon CRBN (80.0 nM, 10 μL) was incubated in assay buffer containing 20 mM HEPES (pH 8.0), […], 0.5 mM TCEP and 0.05% Tween 20 in the presence or absence of compound (300 nL). Inhibitors were stored as 10 mM DMSO stocks in an inert environment (low humidity, dark, low oxygen, room temperature) using the Storage Pod System. […] Following incubation at room temperature for 30 min, the assay was initiated by dispensing the probe to a final concentration of […] (2.5 nL of a 20 μM stock) using the Echo E5XX. […] The FP signal was subsequently normalized to the no-compound control (i.e., DMSO). Analysis and IC50 values were derived using Dotmatics (Dotmatics UK) software.

Where [1] appears, read: bounds stated in the text lists b2059-b2061, read-out: IC50 value.
[2] abbreviates: cereblon binding, class code, read-out: rFP IC50.
[3] abbreviates: IC50 value, bounds stated in the text lists b2059-b2061.
Setting [4] is: rFP IC50 [nM], cereblon binding, class code.

The structures appear in SMILES notation. Where two headings read alike, the source gives them in different places.

T1 sequence (Q96SW2 whole entry): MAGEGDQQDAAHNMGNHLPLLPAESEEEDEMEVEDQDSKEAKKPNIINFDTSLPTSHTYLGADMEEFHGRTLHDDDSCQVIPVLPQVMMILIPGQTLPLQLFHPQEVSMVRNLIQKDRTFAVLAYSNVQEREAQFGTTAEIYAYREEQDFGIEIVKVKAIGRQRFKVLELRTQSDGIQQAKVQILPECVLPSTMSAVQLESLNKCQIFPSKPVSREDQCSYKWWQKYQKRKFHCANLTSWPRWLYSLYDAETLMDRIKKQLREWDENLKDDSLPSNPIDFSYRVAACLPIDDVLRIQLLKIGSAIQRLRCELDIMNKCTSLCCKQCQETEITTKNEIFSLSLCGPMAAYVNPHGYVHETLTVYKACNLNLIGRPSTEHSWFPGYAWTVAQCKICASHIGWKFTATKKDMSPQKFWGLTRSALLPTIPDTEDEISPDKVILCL

Turning to `O=C1CCC(N2Cc3ccc(COC(=O)Nc4cnc5c(c4)COCC5)cc3C2=O)C(=O)N1` (stereo not shown) [Compound 54], the IC50 under setting [1] was below 1100 nM.

In the case of `Cc1ncc(NC(=O)OCc2ccc3c(c2)C(=O)N(C2CCC(=O)NC2=O)C3)cc1OC(F)(F)F` (stereo not shown) [Compound 91], the IC50 reads like this: under setting [1], below 1700 nM; under setting [2], 500 to 1100 nM. `Cc1cc(C#N)cc(NC(=O)OCc2ccc3c(c2)C(=O)N(C2CCC(=O)NC2=O)C3)c1` (stereo not shown) [Compound 112, (2-(2,6-dioxopiperidin-3-yl)-3-oxoisoindolin-5-yl)methyl (3-cyano-5-methylphenyl)carbamate]: under setting [1], the IC50 is below 1100 nM.

Consider `Cc1cc(Cl)cc(NC(=O)OCc2ccc3c(c2)C(=O)N(C2CCC(=O)NC2=O)C3)c1` (stereo not shown) [Compound 144, (2-(2,6-dioxopiperidin-3-yl)-3-oxoisoindolin-5-yl)methyl (3-chloro-5-methylphenyl)carbamate], for which the IC50 under setting [1] was below 1700 nM and the IC50 under setting [2] fell in the range of 1100 to 1700 nM.

For `O=C1CCC(N2Cc3ccc(COC(=O)Nc4cccc(OC5CC5)c4)cc3C2=O)C(=O)N1` (stereo not shown) [Compound 93], the IC50 was below 1700 nM under setting [1] and 500 to 1100 nM under setting [2]. Taken in the same sequence, the figures for `CC1(c2ccc(NC(=O)OCc3ccc4c(c3)C(=O)N(C3CCC(=O)NC3=O)C4)cc2)CC1` (stereo not shown) [Compound 58] were below 1700 nM and 500 to 1100 nM. Consider `O=C1CCC(N2Cc3ccc(COC(=O)Nc4cc(Cl)cc(OCC5CCNC5)c4)cc3C2=O)C(=O)N1` (stereo not shown) [Compound 16], for which the IC50 under setting [1] was below 1100 nM. `Cc1c(Cl)cc(NC(=O)OCc2ccc3c(c2)C(=O)N(C2CCC(=O)NC2=O)C3)cc1OCC1CCNC1` (stereo not shown) [Compound 52]: the IC50 is below 1700 nM under setting [1] and 500 to 1100 nM under setting [2]. In the case of `Cc1c(Cl)cc(NC(=O)OCc2ccc3c(c2)C(=O)N(C2CCC(=O)NC2=O)C3)cc1CN1CCOCC1` (stereo not shown) [Compound 2], the IC50 runs as follows: under setting [1], below 1700 nM; under setting [2], 500 to 1100 nM.

Consider `O=C1CCC(N2Cc3ccc(COC(=O)NC4CCCC4)cc3C2=O)C(=O)N1` (stereo not shown) [Compound 29], for which the IC50 was below 1700 nM under setting [1] and 500 to 1100 nM under setting [2]. Under setting [3], `CC(C)(C)c1cc(NC(=O)OCc2ccc3c(c2)C(=O)N(C2CCC(=O)NC2=O)C3)ccn1` (stereo not shown) [Compound 114] returned an IC50 below 1100 nM. As to `Cc1c(F)cc(NC(=O)OCc2ccc3c(c2)C(=O)N(C2CCC(=O)NC2=O)C3)cc1F` (stereo not shown) [Compound 127, (2-(2,6-dioxopiperidin-3-yl)-3-oxoisoindolin-5-yl)methyl (3,5-difluoro-4-methylphenyl)carbamate], the IC50 is, setting by setting: under setting [1], below 1700 nM; under setting [2], 1100 to 1700 nM. As for `Cc1c(Cl)cc(NC(=O)OCc2ccc3c(c2)C(=O)N(C2CCC(=O)NC2=O)C3)cc1OCC1CCN(C)C1` (stereo not shown) [Compound 70], under setting [1], the IC50 was below 1100 nM. Turning to `O=C1CCC(N2Cc3ccc(COC(=O)Nc4ccc5c(c4)CC(F)(F)O5)cc3C2=O)C(=O)N1` (stereo not shown) [Compound 113], under setting [3], the concentration for half-maximal inhibition (IC50) is below 1100 nM. Consider `CN1CCC(COc2cc(Cl)cc(NC(=O)OCc3ccc4c(c3)C(=O)N(C3CCC(=O)NC3=O)C4)c2)C1` (stereo not shown) [Compound 40], for which the IC50 under setting [1] is below 1100 nM. In turn, `Cc1ccc(NC(=O)OCc2ccc3c(c2)C(=O)N(C2CCC(=O)NC2=O)C3)cc1C` (stereo not shown) [Compound 129] registered a half-inhibitory concentration (IC50) under setting [3] below 1100 nM. In the case of `CC1COc2cc(NC(=O)OCc3ccc4c(c3)C(=O)N(C3CCC(=O)NC3=O)C4)ccc21` (stereo not shown) [Compound 103], the IC50 is below 1700 nM under setting [1] and 500 to 1100 nM under setting [2]. As for `O=C1CCC(N2Cc3ccc(COC(=O)Nc4ccc(C5CC5)nc4)cc3C2=O)C(=O)N1` (stereo not shown) [Compound 80], under setting [1], the IC50 is below 1100 nM. `COc1cc(NC(=O)OCc2ccc3c(c2)C(=O)N(C2CCC(=O)NC2=O)C3)cnc1C` (stereo not shown) [Compound 51]: the IC50 under setting [1] is below 1700 nM and the IC50 under setting [2] lay in the range of 500 to 1100 nM. For the compound `CC1CCN(c2ccc(NC(=O)OCc3ccc4c(c3)C(=O)N(C3CCC(=O)NC3=O)C4)cn2)C1` (stereo not shown) [Compound 69], the IC50 under setting [1] was below 1100 nM. With `Cc1c(F)cc(NC(=O)OCc2ccc3c(c2)C(=O)N(C2CCC(=O)NC2=O)C3)cc1CN1CCOCC1` (stereo not shown) [Compound 41], the IC50 under setting [1] was below 1700 nM and the IC50 under setting [2] is 500 to 1100 nM. Consider `O=C1CCC(N2Cc3ccc(COC(=O)Nc4cc(F)c(F)c(Cl)c4)cc3C2=O)C(=O)N1` (stereo not shown) [Compound 132], for which the IC50 was below 1100 nM under setting [3] and 500 to 1100 nM under setting [4].

Take `O=C1CCC(N2Cc3ccc(COC(=O)Nc4cccc(OC(F)F)c4)cc3C2=O)C(=O)N1` (stereo not shown) [Compound 5]: the IC50 under setting [1] was below 1700 nM and the IC50 under setting [2] lay within 1100 to 1700 nM. As to `O=C1CCC(N2Cc3ccc(COC(=O)Nc4cc(CN5CC6CC5CO6)cc(OC(F)F)c4)cc3C2=O)C(=O)N1` (stereo not shown) [Compound 100], the IC50 under setting [1] was below 1700 nM and the IC50 under setting [2] was in the range of 500 to 1100 nM. For the compound `O=C1CCC(N2Cc3ccc(COC(=O)Nc4cc(OC(F)(F)F)ccc4F)cc3C2=O)C(=O)N1` (stereo not shown) [Compound 145, (2-(2,6-dioxopiperidin-3-yl)-3-oxoisoindolin-5-yl)methyl(2-fluoro-5-(trifluoromethoxy)phenyl)carbamate], the IC50 is, setting by setting: (IC50 value) below 1100 nM; (rFP IC50 [nM]) 500 to 1100 nM. For `O=C1CCC(N2Cc3ccc(COC(=O)Nc4ccc(N5CCC(F)(F)CC5)nc4)cc3C2=O)C(=O)N1` (stereo not shown) [Compound 78], the IC50 under setting [1] was below 1100 nM. As to `O=C1CCC(N2Cc3ccc(COC(=O)Nc4cc(OCCN5CCOCC5)cc(OC(F)(F)F)c4)cc3C2=O)C(=O)N1` (stereo not shown) [Compound 106], the half-inhibitory concentration (IC50) is below 1700 nM under setting [1] and 500 to 1100 nM under setting [2]. The corresponding values for `O=C1CCC(N2Cc3ccc(COC(=O)NCc4ccccc4)cc3C2=O)C(=O)N1` (stereo not shown) [Compound 98] are below 1700 nM and 500 to 1100 nM. On to `C[C@@H]1CCCN1c1ccc(NC(=O)OCc2ccc3c(c2)C(=O)N(C2CCC(=O)NC2=O)C3)cn1` (stereo partly drawn) [Compound 157, (2-(2,6-dioxopiperidin-3-yl)-3-oxoisoindolin-5-yl)methyl (6-((R)-2-methylpyrrolidin-1-yl)pyridin-3-yl)carbamate], for which the IC50 under setting [1] is below 1100 nM.

The compound `Cc1cc(NC(=O)OCc2ccc3c(c2)C(=O)N(C2CCC(=O)NC2=O)C3)cc(F)c1C` (stereo not shown) [Compound 117] came in with an IC50 under setting [3] below 1100 nM and a 50% inhibitory concentration (IC50) under setting [4] of 500 to 1100 nM. On to `O=C1CCC(N2Cc3ccc(COC(=O)Nc4ccc(F)c(Cl)c4)cc3C2=O)C(=O)N1` (stereo not shown) [Compound 9], for which the half-maximal inhibitory concentration (IC50) under setting [1] is below 1700 nM and the IC50 under setting [2] lay within 1100 to 1700 nM.

`O=C1CCC(N2Cc3ccc(COC(=O)Nc4cc(F)cc(Cl)c4)cc3C2=O)C(=O)N1` (stereo not shown) [Compound 12]: the IC50 by setting is: under setting [1], below 1700 nM; under setting [2], 1100 to 1700 nM. Taken in the same sequence, the figures for `O=C1CCC(N2Cc3ccc(COC(=O)Nc4cc(Cl)cc(OC5CCNC5)c4)cc3C2=O)C(=O)N1` (stereo not shown) [Compound 20] were below 1700 nM and 1100 to 1700 nM. For `O=C1CCC(N2Cc3ccc(COC(=O)N4CCN(c5ccccc5)CC4)cc3C2=O)C(=O)N1` (stereo not shown) [Compound 36], under setting [1], the IC50 was below 1100 nM. Regarding `Cc1cc(C)cc(NC(=O)OCc2ccc3c(c2)C(=O)N(C2CCC(=O)NC2=O)C3)c1` (stereo not shown) [Compound 8], the IC50 is below 1700 nM under setting [1] and 500 to 1100 nM under setting [2]. For `N#Cc1cc(Cl)cc(NC(=O)OCc2ccc3c(c2)C(=O)N(C2CCC(=O)NC2=O)C3)c1` (stereo not shown) [Compound 111, (2-(2,6-dioxopiperidin-3-yl)-3-oxoisoindolin-5-yl)methyl (3-chloro-5-cyanophenyl)carbamate], the IC50 under setting [1] is below 1100 nM. As to `O=C1CCC(N2Cc3ccc(COC(=O)Nc4ccc(C5CCC5)nc4)cc3C2=O)C(=O)N1` (stereo not shown) [Compound 105], the 50% inhibitory concentration (IC50) was below 1700 nM under setting [1] and 500 to 1100 nM under setting [2]. On to `O=C1CCC(N2Cc3ccc(COC(=O)NC4COC(c5ccccc5)OC4)cc3C2=O)C(=O)N1` (stereo not shown) [Compound 130], for which the IC50 is below 1100 nM under setting [3] and 500 to 1100 nM under setting [4]. For `O=C1CCC(N2Cc3ccc(COC(=O)Nc4ccc(C5CC5)cc4)cc3C2=O)C(=O)N1` (stereo not shown) [Compound 39], the IC50 by setting is: under setting [1], below 1700 nM; under setting [2], 500 to 1100 nM.

Consider `O=C1CCC(N2Cc3ccc(COC(=O)Nc4cc(CN5CCOCC5)cc(OC(F)(F)F)c4)cc3C2=O)C(=O)N1` (stereo not shown) [Compound 4], for which the IC50 by setting is: under setting [1], below 1700 nM; under setting [2], 500 to 1100 nM. The corresponding values for `Cc1ccccc1-c1ccc(NC(=O)OCc2ccc3c(c2)C(=O)N(C2CCC(=O)NC2=O)C3)cn1` (stereo not shown) [Compound 86] are below 1700 nM and 500 to 1100 nM. The corresponding values for `O=C1CCC(N2Cc3ccc(COC(=O)Nc4ccc5c(c4)CCC5)cc3C2=O)C(=O)N1` (stereo not shown) [Compound 56] are below 1700 nM and 1100 to 1700 nM. With `Cc1ccc(OC(F)(F)F)cc1NC(=O)OCc1ccc2c(c1)C(=O)N(C1CCC(=O)NC1=O)C2` (stereo not shown) [Compound 128], the half-maximal inhibitory concentration (IC50) reads like this: under setting [3], below 1100 nM; under setting [4], 500 to 1100 nM. As for `CCOc1cc(NC(=O)OCc2ccc3c(c2)C(=O)N(C2CCC(=O)NC2=O)C3)ccc1C` (stereo not shown) [Compound 33], the IC50 is below 500 nM under setting [1] and 500 to 1100 nM under setting [2].

On to `C[C@H]1CCCN1c1ccc(NC(=O)OCc2ccc3c(c2)C(=O)N(C2CCC(=O)NC2=O)C3)cn1` (stereo partly drawn) [Compound 156, (2-(2,6-dioxopiperidin-3-yl)-3-oxoisoindolin-5-yl)methyl (6-((S)-2-methylpyrrolidin-1-yl)pyridin-3-yl)carbamate], for which the IC50 under setting [1] was below 1100 nM. For the compound `O=C1CCC(N2Cc3ccc(COC(=O)N4CCCCC4)cc3C2=O)C(=O)N1` (stereo not shown) [Compound 23], the IC50 under setting [1] is below 1100 nM.

As usually defined, the IC50 is the concentration that gives 50% inhibition.
